Experimental data from US20240425523A1, “Compounds for the Degradation of EGFR Kinase” (Beigene Switzerland GMBH, priority 2023, published 2024).

Experiments:
[1] = target: T1, EGFR-L858R/C797S (H1975-clone #8 cells) (Homo sapiens, UniProt P00533, C797S/L858R); assay: Cell degradation of EGFR, HTRF assay, H1975-clone#8 (L858R/C797S) cells; format: cell-based; details: 16 h treatment; for DC50: EGFR degradation; for Dmax: maximum percentage of degradation
T1 construct: expressed in transfected cells; host or cells: H1975 (endogenous EGFR knocked out, clone #8)
T1 sequence (P00533 25-1210 C797S/L858R): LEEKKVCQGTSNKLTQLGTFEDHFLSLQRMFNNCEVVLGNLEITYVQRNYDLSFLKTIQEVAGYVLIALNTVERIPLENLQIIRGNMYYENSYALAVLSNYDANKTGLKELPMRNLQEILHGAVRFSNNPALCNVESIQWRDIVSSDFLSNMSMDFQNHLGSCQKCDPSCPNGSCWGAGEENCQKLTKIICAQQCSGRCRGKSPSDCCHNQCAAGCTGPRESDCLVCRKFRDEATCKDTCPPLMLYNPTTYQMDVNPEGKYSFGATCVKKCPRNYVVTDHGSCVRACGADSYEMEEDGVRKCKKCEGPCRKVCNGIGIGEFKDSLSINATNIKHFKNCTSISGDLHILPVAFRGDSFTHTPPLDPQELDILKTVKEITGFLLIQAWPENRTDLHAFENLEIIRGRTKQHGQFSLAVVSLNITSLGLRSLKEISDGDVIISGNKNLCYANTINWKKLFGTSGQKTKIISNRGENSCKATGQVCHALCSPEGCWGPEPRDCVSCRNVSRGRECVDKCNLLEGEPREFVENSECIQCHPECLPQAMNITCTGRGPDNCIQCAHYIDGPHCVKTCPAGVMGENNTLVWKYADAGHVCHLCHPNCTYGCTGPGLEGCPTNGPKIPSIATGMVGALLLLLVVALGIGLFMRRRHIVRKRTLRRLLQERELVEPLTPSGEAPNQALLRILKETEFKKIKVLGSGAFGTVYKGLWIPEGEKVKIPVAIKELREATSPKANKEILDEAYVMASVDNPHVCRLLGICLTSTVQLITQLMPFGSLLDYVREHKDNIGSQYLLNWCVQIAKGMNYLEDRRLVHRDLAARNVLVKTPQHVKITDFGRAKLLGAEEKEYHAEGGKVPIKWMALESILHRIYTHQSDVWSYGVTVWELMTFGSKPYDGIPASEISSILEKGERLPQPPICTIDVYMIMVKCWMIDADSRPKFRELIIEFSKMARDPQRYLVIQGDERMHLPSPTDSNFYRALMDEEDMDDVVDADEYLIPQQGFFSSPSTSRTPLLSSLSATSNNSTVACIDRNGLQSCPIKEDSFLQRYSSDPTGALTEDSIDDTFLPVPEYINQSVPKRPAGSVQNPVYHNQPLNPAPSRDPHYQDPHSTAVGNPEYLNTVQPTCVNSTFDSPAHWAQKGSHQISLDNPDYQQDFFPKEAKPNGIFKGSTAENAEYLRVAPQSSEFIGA
Method: The EGFR over-expressed cells then underwent knockout, in which the EGFR targeting sgRNA was designed to only target the endogenous EGFR copies and preserve the exogenous EGFR copies. Followed by the knockout, the edited H1975 cells were seeded in 96 well plates at the concentration of […], cultured for about 2 weeks to allow single clones formation. The formed clones were screened by DNA sequencing and whole exon sequencing analysis for the desired edition.
(§1) H1975-#8 and BaF3-L858R cells are treated with compounds diluted in 0.1% DMSO cell culture medium on day 2, incubate for 16 h, 37° C., 5% CO2. the final concentration of compounds in all assay is start with 10 uM, 5-fold dilution, total 8 doses were included.
(§2) After 16 h treatment, for H1975-#8 cells, add 100 ul HTRF 1× lysis buffer to each well; for BaF3-L858R cells, add 20 μl 4× lysis buffer to each well; seal the plate and incubate 1 hour at room temperature on a plate shaker; Once the cells are lysed, 16 μL of cell lysate are transferred to a PE 384-well HTRF detection plate; 4 μL of pre-mixed HTRF antibodies are added to each well; Cover the plate with a plate sealer, spin 1000 rpm for 1 min, Incubate overnight at room temperature; Read on BMG PheraStar with HTRF protocol (337 nm-665 nm-620 nm).
(§3) High control=Cell group with added DMSO and without compound, indicating microplate readings without EGFR degradation;
(§4) Dmax is the maximum percentage of inhibition (degradation).
(§5) The IC50 (DC50) value of a compound can be obtained by fitting the following equation
(§6) Y=Bottom+(TOP−Bottom)/(1+((IC50/X)^hillslope))
(§7) Wherein, X and Y are known values, and IC50, Hillslope, Top and Bottom are the parameters obtained by fitting with software. […] The experimental data were fitted by calculating and analyzing with Dotmatics data analysis software.

[2] = target: T2, EGFR L858R (BaF3-L858R cells) (Homo sapiens, UniProt P00533, L858R); assay: Cell degradation of EGFR, HTRF assay, BaF3-L858R cells; format: cell-based; details: 16 h treatment; for DC50: EGFR degradation; for Dmax: maximum percentage of degradation
T2 construct: host or cells: BaF3
T2 sequence (P00533 25-1210 L858R): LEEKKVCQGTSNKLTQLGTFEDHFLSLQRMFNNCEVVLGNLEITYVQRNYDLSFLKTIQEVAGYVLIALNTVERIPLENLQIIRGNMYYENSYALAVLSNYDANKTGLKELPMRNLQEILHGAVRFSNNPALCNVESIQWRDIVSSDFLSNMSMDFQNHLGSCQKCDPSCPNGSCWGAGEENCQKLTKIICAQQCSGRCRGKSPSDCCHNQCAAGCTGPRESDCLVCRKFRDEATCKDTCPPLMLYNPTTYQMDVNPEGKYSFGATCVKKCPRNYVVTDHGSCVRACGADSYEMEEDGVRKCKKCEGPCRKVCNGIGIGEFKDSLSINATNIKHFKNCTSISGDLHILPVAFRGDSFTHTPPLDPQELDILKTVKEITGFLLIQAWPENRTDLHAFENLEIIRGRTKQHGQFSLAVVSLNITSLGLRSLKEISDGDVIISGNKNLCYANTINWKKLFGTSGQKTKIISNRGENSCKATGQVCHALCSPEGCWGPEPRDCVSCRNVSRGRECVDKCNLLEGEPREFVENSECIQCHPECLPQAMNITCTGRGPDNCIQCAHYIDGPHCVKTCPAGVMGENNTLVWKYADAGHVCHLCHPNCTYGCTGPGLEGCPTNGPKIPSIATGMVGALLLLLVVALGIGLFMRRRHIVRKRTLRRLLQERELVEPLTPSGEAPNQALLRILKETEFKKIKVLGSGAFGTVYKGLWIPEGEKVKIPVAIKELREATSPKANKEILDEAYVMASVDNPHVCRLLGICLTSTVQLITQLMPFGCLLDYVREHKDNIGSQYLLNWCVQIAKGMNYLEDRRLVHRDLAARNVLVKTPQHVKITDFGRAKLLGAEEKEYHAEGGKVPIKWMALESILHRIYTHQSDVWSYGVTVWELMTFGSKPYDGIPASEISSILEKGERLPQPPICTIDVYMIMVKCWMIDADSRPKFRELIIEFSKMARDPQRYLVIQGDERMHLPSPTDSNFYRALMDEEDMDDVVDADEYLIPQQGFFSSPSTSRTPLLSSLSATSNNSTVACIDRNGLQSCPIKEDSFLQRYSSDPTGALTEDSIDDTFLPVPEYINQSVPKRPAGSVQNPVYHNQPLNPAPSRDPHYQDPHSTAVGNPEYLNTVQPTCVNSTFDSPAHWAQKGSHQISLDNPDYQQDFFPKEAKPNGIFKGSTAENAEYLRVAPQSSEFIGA
Method: BaF3-L858R (abbv. L858R) cell were purchased from Kangyuan Bochuang Biotechnology (Beijing) Co., Ltd.
as §1, §2, §3, §4, §5, §6, §7

Cc1cc2cc(n1)-c1cnn(C)c1OC[C@H]1CC[C@H](C1)CN1/C(=N/C2=O)Nc2ccc(N3CCN(C4CCN(c5cc(F)c([C@H]6CCC(=O)NC6=O)c(F)c5)CC4)CC3)cc21 [Example 1, (R)-3-(4-(4-(4-((7^1R,7^3S,E)-1^1,2^6-dimethyl-3-oxo-5^2,5^3-dihydro-1^1H,5^1H-9-oxa-4-aza-5(2,1)-benzo[d]imidazola-2(2,4)-pyridina-1(4,5)-pyrazola-7(1,3)-cyclopentanacyclononaphane-5^6-yl)piperazin-1-yl)piperidin-1-yl)-2,6-difluorophenyl)piperidine-2,6-dione]
DC50 [1]: 1.41 nM
Dmax [1]: 79.2%
DC50 [2]: 3.25 nM
Dmax [2]: 89.7%

Cc1cc2cc(n1)-c1cnn(C)c1OC[C@H]1CC[C@H](C1)CN1/C(=N/C2=O)Nc2ccc(N3CCN(C4CCN(c5ccc(C6CCC(=O)NC6=O)nc5C)CC4)CC3)cc21 (stereo partly drawn) [Example 2, 3-(5-(4-(4-((7^1R,7^3S,E)-1^1,2^6-dimethyl-3-oxo-5^2,5^3-dihydro-1^1H,5^1H-9-oxa-4-aza-5(2,1)-benzo[d]imidazola-2(2,4)-pyridina-1(4,5)-pyrazola-7(1,3)-cyclopentanacyclononaphane-5^6-yl)piperazin-1-yl)piperidin-1-yl)-6-methylpyridin-2-yl)piperidine-2,6-dione]
DC50 [1]: 1.38 nM
Dmax [1]: 72.6%
DC50 [2]: 0.879 nM
Dmax [2]: 87.2%

Cc1cc2cc(n1)-c1cnn(C)c1OC[C@@H]1CC[C@@H](C1)CN1/C(=N/C2=O)Nc2ccc(N3CCN(C4CCN(c5ccc(C6CCC(=O)NC6=O)nc5C)CC4)CC3)cc21 (stereo partly drawn) [Example 3, 3-(5-(4-(4-((7^1S,7^3R,E)-1^1,2^6-dimethyl-3-oxo-5^2,5^3-dihydro-1^1H,5^1H-9-oxa-4-aza-5(2,1)-benzo[d]imidazola-2(2,4)-pyridina-1(4,5)-pyrazola-7(1,3)-cyclopentanacyclononaphane-5^6-yl)piperazin-1-yl)piperidin-1-yl)-6-methylpyridin-2-yl)piperidine-2,6-dione]
DC50 [1]: 16.4 nM
Dmax [1]: 44%
DC50 [2]: 20.1 nM
Dmax [2]: 72.7%

CCc1nc(C2CCC(=O)NC2=O)ccc1N1CCC(N2CCN(c3ccc4c(c3)N3C[C@@H]5CC[C@H](COc6c(cnn6C)-c6cc(cc(C)n6)C(=O)/N=C/3N4)C5)CC2)CC1 (stereo partly drawn) [Example 4, 3-(5-(4-(4-((7^1R,7^3S,E)-1^1,2^6-dimethyl-3-oxo-5^2,5^3-dihydro-1^1H,5^1H-9-oxa-4-aza-5(2,1)-benzo[d]imidazola-2(2,4)-pyridina-1(4,5)-pyrazola-7(1,3)-cyclopentanacyclononaphane-5^6-yl)piperazin-1-yl)piperidin-1-yl)-6-ethylpyridin-2-yl)piperidine-2,6-dione]
DC50 [1]: 2.34 nM
Dmax [1]: 75.4%
DC50 [2]: 1.23 nM
Dmax [2]: 87.6%

Cc1cc2cc(n1)-c1cnn(C)c1OC[C@H]1CC[C@H](C1)CN1/C(=N/C2=O)Nc2ccc(N3CCN(C4CCN(c5cccc6c5C(C)(C)C(=O)N6C5CCC(=O)NC5=O)CC4)CC3)cc21 (stereo partly drawn) [Example 5, 3-(4-(4-(4-((7^1R,7^3S,E)-1^1,2^6-dimethyl-3-oxo-5^2,5^3-dihydro-1^1H,5^1H-9-oxa-4-aza-5(2,1)-benzo[d]imidazola-2(2,4)-pyridina-1(4,5)-pyrazola-7(1,3)-cyclopentanacyclononaphane-5^6-yl)piperazin-1-yl)piperidin-1-yl)-3,3-dimethyl-2-oxoindolin-1-yl)piperidine-2,6-dione]
DC50 [1]: 0.856 nM
Dmax [1]: 75.7%
DC50 [2]: 1.01 nM
Dmax [2]: 84.4%

Cc1cc2cc(n1)-c1cnn(C)c1OC[C@H]1CC[C@H](C1)CN1/C(=N/C2=O)Nc2ccc(N3CCN(C4CCN(c5cc(F)c(C6CCC(=O)NC6=O)nc5C)CC4)CC3)cc21 (stereo partly drawn) [Example 6, 3-(5-(4-(4-((7^1R,7^3S,E)-1^1,2^6-dimethyl-3-oxo-5^2,5^3-dihydro-1^1H,5^1H-9-oxa-4-aza-5(2,1)-benzo[d]imidazola-2(2,4)-pyridina-1(4,5)-pyrazola-7(1,3)-cyclopentanacyclononaphane-5^6-yl)piperazin-1-yl)piperidin-1-yl)-3-fluoro-6-methylpyridin-2-yl)piperidine-2,6-dione]
DC50 [1]: 1.2 nM
Dmax [1]: 86.6%
DC50 [2]: 3.1 nM
Dmax [2]: 101%

Cc1cc2cc(n1)-c1cnn(C)c1OC[C@H]1CC[C@H](C1)CN1/C(=N/C2=O)Nc2ccc(N3CCN(CCc4c(C)cc(C5CCC(=O)NC5=O)nc4C)CC3)cc21 (stereo partly drawn) [Example 7, 3-(5-(2-(4-((7^1R,7^3S,E)-1^1,2^6-dimethyl-3-oxo-5^2,5^3-dihydro-1^1H,5^1H-9-oxa-4-aza-5(2,1)-benzo[d]imidazola-2(2,4)-pyridina-1(4,5)-pyrazola-7(1,3)-cyclopentanacyclononaphane-5^6-yl)piperazin-1-yl)ethyl)-4,6-dimethylpyridin-2-yl)piperidine-2,6-dione]
DC50 [1]: 2.03 nM
Dmax [1]: 45.4%
DC50 [2]: 0.631 nM
Dmax [2]: 99.4%

Cc1cc2cc(n1)-c1cnn(C)c1OC[C@H]1CC[C@H](C1)CN1/C(=N/C2=O)Nc2ccc(N3CCN(CC4CN(c5c(C)cc(C6CCC(=O)NC6=O)nc5C)C4)CC3)cc21 (stereo partly drawn) [Example 8, 3-(5-(3-((4-((7^1R,7^3S,E)-1^1,2^6-dimethyl-3-oxo-5^2,5^3-dihydro-1^1H,5^1H-9-oxa-4-aza-5(2,1)-benzo[d]imidazola-2(2,4)-pyridina-1(4,5)-pyrazola-7(1,3)-cyclopentanacyclononaphane-5^6-yl)piperazin-1-yl)methyl)azetidin-1-yl)-4,6-dimethylpyridin-2-yl)piperidine-2,6-dione]
DC50 [1]: 3.18 nM
Dmax [1]: 74.2%
DC50 [2]: 3.2 nM
Dmax [2]: 64%

COC[C@@H]1CN(c2ccc3c(c2)N2C[C@@H]4CC[C@H](COc5c(cnn5C)-c5cc(cc(C)n5)C(=O)/N=C/2N3)C4)CCN1C1CCN(c2cc(F)c([C@H]3CCC(=O)NC3=O)c(F)c2)CC1 [Example 9, (R)-3-(4-(4-((S)-4-((7^1R,7^3S,E)-1^1,2^6-dimethyl-3-oxo-5^2,5^3-dihydro-1^1H,5^1H-9-oxa-4-aza-5(2,1)-benzo[d]imidazola-2(2,4)-pyridina-1(4,5)-pyrazola-7(1,3)-cyclopentanacyclononaphane-5^6-yl)-2-(methoxymethyl)piperazin-1-yl)piperidin-1-yl)-2,6-difluorophenyl)piperidine-2,6-dione]
DC50 [1]: 4.28 nM
Dmax [1]: 71.7%
DC50 [2]: 6.11 nM
Dmax [2]: 86.6%

Cc1cc2cc(n1)-c1cnn(C)c1OC[C@H]1CC[C@H](C1)CN1/C(=N/C2=O)Nc2ccc(N3CCN(C4CCN(c5cc(F)c([C@H]6CCC(=O)NC6=O)c(F)c5)CC4)CC34COC4)cc21 [Example 10, (R)-3-(4-(4-(5-((7^1R,7^3S,E)-1^1,2^6-dimethyl-3-oxo-5^2,5^3-dihydro-1^1H,5^1H-9-oxa-4-aza-5(2,1)-benzo[d]imidazola-2(2,4)-pyridina-1(4,5)-pyrazola-7(1,3)-cyclopentanacyclononaphane-5^6-yl)-2-oxa-5,8-diazaspiro[3.5]nonan-8-yl)piperidin-1-yl)-2,6-difluorophenyl)piperidine-2,6-dione]
DC50 [1]: 3.15 nM
Dmax [1]: 66.8%
DC50 [2]: 4.07 nM
Dmax [2]: 73%

Cc1cc2cc(n1)-c1cnn(C)c1OC[C@H]1CC[C@H](C1)CN1/C(=N/C2=O)Nc2ccc(N3CCN([C@@H]4CCN(c5cccc6c5C(C)(C)C(=O)N6C5CCC(=O)NC5=O)C[C@@H]4F)CC3)cc21 (stereo partly drawn) [Example 11, 3-(4-((3S,4R)-4-(4-((7^1R,7^3S,E)-1^1,2^6-dimethyl-3-oxo-5^2,5^3-dihydro-1^1H,5^1H-9-oxa-4-aza-5(2,1)-benzo[d]imidazola-2(2,4)-pyridina-1(4,5)-pyrazola-7(1,3)-cyclopentanacyclononaphane-5^6-yl)piperazin-1-yl)-3-fluoropiperidin-1-yl)-3,3-dimethyl-2-oxoindolin-1-yl)piperidine-2,6-dione]
DC50 [1]: 3.75 nM
Dmax [1]: 61.5%
DC50 [2]: 0.834 nM
Dmax [2]: 84.6%

Cc1cc2cc(n1)-c1cnn(C)c1OC[C@H]1CC[C@H](C1)CN1/C(=N/C2=O)Nc2ccc(N3CCN([C@@H]4CCN(c5ccc(C6CCC(=O)NC6=O)nc5C)C[C@@H]4F)CC3)cc21 (stereo partly drawn) [Example 12, 3-(5-((3S,4R)-4-(4-((7^1R,7^3S,E)-1^1,2^6-dimethyl-3-oxo-5^2,5^3-dihydro-1^1H,5^1H-9-oxa-4-aza-5(2,1)-benzo[d]imidazola-2(2,4)-pyridina-1(4,5)-pyrazola-7(1,3)-cyclopentanacyclononaphane-5^6-yl)piperazin-1-yl)-3-fluoropiperidin-1-yl)-6-methylpyridin-2-yl)piperidine-2,6-dione]
DC50 [1]: 0.774 nM
Dmax [1]: 88.4%
DC50 [2]: 0.493 nM
Dmax [2]: 90%
